The subject of one experiment is P. falciparum. Conditions: read-out: EC50 against P. falciparum; cited from earlier work.
For experiment [1], the system named is multi-drug-resistant P. falciparum line Dd2. In kind it is cell-based, Plasmodium falciparum.

Where a SMILES comes first, the peptide text is derived from it. [ ]: non-standard residue; d: D form. The star is where a group is joined. X1 = CC(C)C[C@@H](C[N+]1=C2CCCN2CCC1)N*; dIva = CC[C@@](C)(N)C(=O)O; Pip = O=C(O)[C@@H]1CCCCN1; Aib = CC(C)(N)C(=O)O; βAla = NCCC(=O)O

Broadly, the EC50 is the concentration that produces a half-maximal response. `CC[C@H](C)[C@@H](C(=O)O[C@@H](CC(C)C)C(=O)N[C@@H](CC(C)C)C(=O)N[C@@H](C)/C=C/C(=O)N1C(=O)C=C(OC)[C@@H]1C)N(C)C` [Gallinamide A]: the EC50 in the experiment on P. falciparum is 8.4 µM.
As to `CC[C@@](C)(NC(=O)[C@H](CC(C)C)NC(=O)[C@H](C)NC(=O)C(C)(C)NC(=O)[C@@H]1CCCCN1C(=O)C(C)(C)NC(=O)C(C)(C)NC(=O)CNC(=O)CCNC(=O)[C@H](CC(C)C)NC(=O)C(C)(C)NC(=O)C(C)(C)NC(=O)[C@@H]1CCCCN1C(=O)C(C)(C)NC(=O)[C@@H]1CCCCN1C(C)=O)C(=O)N[C@@H](CC(C)C)C[N+]1=C2CCCN2CCC1` [efrapeptin F (53), efrapeptin F] (Ac-[Pip][Aib][Pip][Aib][Aib]L[βAla]G[Aib][Aib][Pip][Aib]AL[dIva]-X1; N-terminus and C-terminus assumed), in experiment [1], the “antiplasmodial activity in words” value is reported as “submicromolar”.

(Values after PMC7941592 (Journal of natural products, 2021).)
